Results taken from PMC5520972 (Cancer chemotherapy and pharmacology, 2017).

What was measured:
[1] = Safety and tolerability, dose-limiting toxicities; format: in vivo, human; conditions: for Dose-limiting toxicity, hyperbilirubinemia (number of patients): days 1–8
HCC = assay: Response assessment; format: in vivo, human; conditions: of 11 HCC patients; 3 based solely on symptomatic deterioration
AAG and albumin = conditions: bound to both AAG and albumin; cited from earlier work
[2] = cited from earlier work

Q: With `CS(=O)(=O)c1ccc(C(=O)Nc2ccc(Cl)c(-c3ccccn3)c2)c(Cl)c1` [vismodegib] as the compound, how does the “AEs grade 3 or 4 in severity” value ([1]; all cohorts) read?
A: 67.7%

Q: And the “Total patients who experienced DLTs of hyperbilirubinemia” value ([1]; all cohorts, 31 patients)?
A: three

Q: And the “Patients who experienced at least one AE” value ([1]; all groups, 31 patients)?
A: 96.8%

Q: And the “Adverse event frequency: abdominal pain” value ([1]; all patients)?
A: 22.6%

Q: What about the “Adverse event frequency: decreased appetite” value ([1]; all patients) of the same compound?
A: 22.6%

Q: What about the “Adverse event frequency: dysgeusia” value ([1]; all patients) of the same compound?
A: 22.6%

Q: And the “Adverse event frequency: fatigue” value ([1]; all patients)?
A: 67.7%

Q: And the “Adverse event frequency: muscle spasms” value ([1]; all patients)?
A: 22.6%

Q: And the “Adverse event frequency: nausea” value ([1]; all patients)?
A: 35.5%

Q: What about the “Adverse event frequency: vomiting” value ([1]; all patients) of the same compound?
A: 22.6%

Q: What about the “Serious AE: abdominal pain” value ([1]; all patients (2 patients)) of the same compound?
A: 6.5%

Q: What about the “Serious AE: hyperbilirubinemia” value ([1]; all patients (2 patients)) of the same compound?
A: 6.5%

Q: And the “Serious AE: upper gastrointestinal hemorrhage” value ([1]; all patients (2 patients))?
A: 6.5%

Q: And the “Patients who experienced serious AEs” value ([1]; all patients (16 patients))?
A: 51.6%

Q: And the “AEs grade 3 or 4 in severity” value ([1]; control cohort)?
A: 44.4%

Q: And the “AEs grade 3 or 4 in severity” value ([1]; mild cohort)?
A: 75%

Q: What about the “Patients who experienced serious AEs” value ([1]; mild cohort (4 patients)) of the same compound?
A: 50%

Q: And the “Adverse events leading to withdrawal of vismodegib: intracranial bleed” value ([1]; mild cohort n = 8)?
A: 1 (intracranial bleed)

Q: What about the “Deaths due to progression of disease (number of patients)” value (“Deaths due to progression of disease” below) ([1]; mild cohort n = 8) of the same compound?
A: 1

Q: What about the “Dose-limiting toxicity, hyperbilirubinemia (number of patients)” value ([1]; mild cohort n = 8, oral 150 mg daily) of the same compound?
A: 0

Q: And the “AEs grade 3 or 4 in severity” value ([1]; moderate cohort)?
A: 87.5%

Q: What about the “Patients who experienced serious AEs” value ([1]; moderate cohort (6 patients)) of the same compound?
A: 75%

Q: And the “Adverse events leading to withdrawal of vismodegib: GI bleeds” value ([1]; moderate cohort n = 8)?
A: 2

Q: And the “Adverse events leading to withdrawal of vismodegib: hyperbilirubinemia” value ([1]; moderate cohort n = 8)?
A: 1

Q: What about the “Deaths due to progression of disease” value ([1]; moderate cohort n = 8) of the same compound?
A: 3

Q: And the “Patients who experienced serious AEs” value ([1]; normal cohort (3 patients))?
A: 33.3%

Q: What about the “Adverse events leading to withdrawal of vismodegib” value ([1]; normal cohort n = 9) of the same compound?
A: 0

Q: And the “Deaths due to progression of disease” value ([1]; normal cohort n = 9)?
A: 0

Q: And the “Dose-limiting toxicity, hyperbilirubinemia (number of patients)” value ([1]; normal cohort n = 9, oral 150 mg daily)?
A: 0

Q: And the “AEs grade 3 or 4 in severity” value ([1]; severe cohort)?
A: 66.7%

Q: What about the “Patients who experienced serious AEs” value ([1]; severe cohort (3 patients)) of the same compound?
A: 50%

Q: What about the “Adverse events leading to withdrawal of vismodegib: fatigue” value ([1]; severe cohort n = 6) of the same compound?
A: 1

Q: And the “Adverse events leading to withdrawal of vismodegib: hyperbilirubinemia” value ([1]; severe cohort n = 6)?
A: 2

Q: What about the “Adverse events leading to withdrawal of vismodegib: hyponatremia” value ([1]; severe cohort n = 6) of the same compound?
A: 1

Q: And the “Adverse events leading to withdrawal of vismodegib: leukocytosis” value ([1]; severe cohort n = 6)?
A: 1

Q: And the “Deaths due to progression of disease” value ([1]; severe cohort n = 6)?
A: 1

Q: And the “HCC patients with progressive disease” value (HCC)?
A: nine

Q: What about the “Percentage of dose excreted in urine over a 24-h interval” value (all patients, regardless of hepatic function, day 8) of the same compound?
A: < 1%

Q: And the “Renal clearance (CLR)” value (patients with hepatic impairment compared to normal hepatic function)?
A: lower

Q: And the Plasma protein bound (AAG and albumin)?
A: greater than 98%

Q: What about the “Cmax interpatient coefficient of variation” value [2] of the same compound?
A: ~37.4%

Q: And the “PK variability explained by AAG levels” value [2]?
A: > 70%
